Laboratory results reported in PubChem BioAssay AID256 (DTP/NCI, 2004).
Several values for one entry are separate records, joined by “and”; a condition that tells them apart may be missing. Equal values may be shown once. Inconclusive results and toxic doses are left out. Rule for the calls: active = survival T/C of 150% or more; inactive = T/C below 125% in these data.

System: CD2F1 mice, L1210 leukemia ip, survival T/C
Assay: NCI In Vivo Anticancer Drug Screen. Data for tumor model L1210 Leukemia (intraperitoneal) in CD2F1 (CDF1) mice
Conditions: higher = longer survival
In short: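 Mice carrying a transplanted tumor received test compound or vehicle alone. The value is the measurement in the treated group divided by that in the vehicle-treated control group.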

[1] = endpoint: mean survival time, dose: 100.0 mg/kg/injection, schedule: Q01DX009 (ip), vehicle: saline with Tween-80
[2] = endpoint: mean survival time, dose: 200.0 mg/kg/injection, schedule: Q01DX009 (ip), vehicle: saline with Tween-80
[3] = endpoint: mean survival time, dose: 100.0 mg/kg/injection, schedule: Q01DX009 (ip), vehicle: saline
[4] = endpoint: mean survival time, dose: 200.0 mg/kg/injection, schedule: Q01DX009 (ip), vehicle: saline
[5] = endpoint: mean survival time, dose: 400.0 mg/kg/injection, schedule: Q01DX009 (ip), vehicle: saline
[6] = endpoint: mean survival time, dose: 12.5 mg/kg/injection, schedule: Q01DX009 (ip), vehicle: saline
[7] = endpoint: mean survival time, dose: 25.0 mg/kg/injection, schedule: Q01DX009 (ip), vehicle: saline
[8] = endpoint: mean survival time, dose: 50.0 mg/kg/injection, schedule: Q01DX009 (ip), vehicle: saline
[9] = endpoint: mean survival time, dose: 100.0 mg/kg/injection, schedule: Q04DX003 (ip), vehicle: saline with Tween-80
[10] = endpoint: mean survival time, dose: 200.0 mg/kg/injection, schedule: Q04DX003 (ip), vehicle: saline with Tween-80
[11] = endpoint: mean survival time, dose: 400.0 mg/kg/injection, schedule: Q04DX003 (ip), vehicle: saline with Tween-80
[12] = endpoint: mean survival time, dose: 25.0 mg/kg/injection, schedule: Q01DX009 (ip), vehicle: saline with Tween-80
[13] = endpoint: mean survival time, dose: 50.0 mg/kg/injection, schedule: Q01DX009 (ip), vehicle: saline with Tween-80
[14] = endpoint: mean survival time, dose: 100.0 mg/kg/injection, schedule: Q04DX003 (ip), vehicle: saline
[15] = endpoint: mean survival time, dose: 200.0 mg/kg/injection, schedule: Q04DX003 (ip), vehicle: saline
[16] = endpoint: mean survival time, dose: 400.0 mg/kg/injection, schedule: Q04DX003 (ip), vehicle: saline
[17] = endpoint: mean survival time, dose: 400.0 mg/kg/injection, schedule: Q01DX009 (ip), vehicle: saline with Tween-80
[18] = endpoint: mean survival time, dose: 100.0 mg/kg/injection, schedule: Q01DX001 (ip), vehicle: saline with Tween-80
[19] = endpoint: mean survival time, dose: 200.0 mg/kg/injection, schedule: Q01DX001 (ip), vehicle: saline with Tween-80
[20] = endpoint: mean survival time, dose: 400.0 mg/kg/injection, schedule: Q01DX001 (ip), vehicle: saline with Tween-80
[21] = endpoint: mean survival time, dose: 100.0 mg/kg/injection, schedule: Q04DX002 (ip), vehicle: saline with Tween-80
[22] = endpoint: mean survival time, dose: 200.0 mg/kg/injection, schedule: Q04DX002 (ip), vehicle: saline with Tween-80
[23] = endpoint: mean survival time, dose: 400.0 mg/kg/injection, schedule: Q04DX002 (ip), vehicle: saline with Tween-80

Measured: T/C

COc1ccc(NC(=S)/C(=C(\[O-])c2ccc([N+](=O)[O-])cc2)[n+]2ccc(C(C)C)cc2)cc1
inactive: [1] 91 % of control | [2] 97 % of control

CN(C)[C@@H]1C(=O)C(C(=O)NCN2CCN(C(=N)N=C(N)N)CC2)=C(O)[C@@]2(O)C(=O)C3=C(O)c4c(O)cccc4[C@@](C)(O)[C@H]3C[C@@H]12
inactive: endpoint: mean survival time, dose: 1.25 mg/kg/injection, schedule: Q01DX001 (ip), vehicle: saline 111 % of control | endpoint: median survival time, dose: 0.31 mg/kg/injection, schedule: Q01DX009 (ip), vehicle: saline 107 % of control | endpoint: median survival time, dose: 0.62 mg/kg/injection, schedule: Q01DX009 (ip), vehicle: saline 110 % of control | endpoint: median survival time, dose: 1.25 mg/kg/injection, schedule: Q01DX009 (ip), vehicle: saline 103 % of control | endpoint: median survival time, dose: 2.0 mg/kg/injection, schedule: Q01DX009 (ip), vehicle: saline 109 % of control | endpoint: median survival time, dose: 5.0 mg/kg/injection, schedule: Q01DX009 (ip), vehicle: saline 87 % of control

COC(CN(C)Cc1c[nH]c2ccccc12)OC
inactive: endpoint: mean survival time, dose: 75.0 mg/kg/injection, schedule: Q01DX001 (ip), vehicle: saline 107 % of control

CCCCCCCCCCCC(=O)N(C)CCS(=O)(=O)O
inactive: [3] 103 % of control | [4] 101 % of control | [5] 109 % of control

Cc1cn(C2CC(O)C(CO)O2)c(=O)[nH]c1=O (centres undefined)
inactive: [6] 95 % of control and 104 % of control | [7] 91 % of control and 103 % of control | [8] 91 % of control and 104 % of control | [3] 98 % of control | [4] 95 % of control and 103 % of control | endpoint: mean survival time, dose: 250.0 mg/kg/injection, schedule: Q03HX008 (ip), vehicle: saline 102 % of control | [5] 92 % of control | endpoint: mean survival time, dose: 500.0 mg/kg/injection, schedule: Q03HX008 (ip), vehicle: saline 110 % of control | endpoint: mean survival time, dose: 1000.0 mg/kg/injection, schedule: Q03HX008 (ip), vehicle: saline 102 % of control

C[Si](C)(C)C1CCC2C3C=CC(C3)C21 (centres undefined)
inactive: endpoint: mean survival time, dose: 100.0 mg/kg/injection, schedule: Q04DX003 (ip), vehicle: alcohol 107 % of control | endpoint: mean survival time, dose: 200.0 mg/kg/injection, schedule: Q04DX003 (ip), vehicle: alcohol 96 % of control | endpoint: mean survival time, dose: 400.0 mg/kg/injection, schedule: Q04DX003 (ip), vehicle: alcohol 96 % of control

CC(=O)Oc1ccccc1O
inactive: endpoint: median survival time, dose: 12.5 mg/kg/injection, schedule: Q01DX009 (ip), vehicle: saline + Tween-80 + alcohol 96 % of control and 103 % of control | endpoint: median survival time, dose: 25.0 mg/kg/injection, schedule: Q01DX009 (ip), vehicle: saline + Tween-80 + alcohol 101 % of control and 109 % of control

COc1ccc2nc(-c3ccc(F)cc3)cc(C(=O)O)c2c1
inactive: [9] 97 % of control | [10] 101 % of control | [11] 101 % of control

Nc1ccccc1Nc1ccncc1
inactive: [12] 100 % of control | [13] 101 % of control | [9] 91 % of control

COc1cc(C(=O)N/N=C/c2ccc(N(C)C)cc2)cc(OC)c1OC
inactive: [1] 119 % of control | [2] 98 % of control

NC(CC(=O)NO)C(=O)O (centres undefined)
inactive: [6] 95 % of control | [7] 101 % of control | [8] 101 % of control | [3] 95 % of control | [4] 111 % of control and 95 % of control | [5] 103 % of control

CCOP(=S)(OCC)Oc1cccc(NC(=O)N(C)C)c1
inactive: [9] 96 % of control | [10] 91 % of control | [11] 99 % of control

NOCc1csc(NC(=O)Nc2ccccc2)n1
inactive: endpoint: mean survival time, dose: 18.8 mg/kg/injection, schedule: Q01DX001 (ip), vehicle: saline with Tween-80 110 % of control | endpoint: mean survival time, dose: 18.8 mg/kg/injection, schedule: Q04DX003 (ip), vehicle: saline with Tween-80 98 % of control | endpoint: mean survival time, dose: 37.5 mg/kg/injection, schedule: Q01DX001 (ip), vehicle: saline with Tween-80 112 % of control | endpoint: mean survival time, dose: 37.5 mg/kg/injection, schedule: Q04DX003 (ip), vehicle: saline with Tween-80 98 % of control | endpoint: mean survival time, dose: 75.0 mg/kg/injection, schedule: Q01DX001 (ip), vehicle: saline with Tween-80 96 % of control | endpoint: mean survival time, dose: 75.0 mg/kg/injection, schedule: Q04DX003 (ip), vehicle: saline with Tween-80 98 % of control

COc1ccc(/C=N/N=C(/C(=O)c2ccc(OC)cc2)c2ccc(OC)cc2)cc1
inactive: endpoint: mean survival time, dose: 100.0 mg/kg/injection, schedule: Q01DX001 (ip), vehicle: saline 95 % of control | [14] 102 % of control | endpoint: mean survival time, dose: 200.0 mg/kg/injection, schedule: Q01DX001 (ip), vehicle: saline 91 % of control | [15] 97 % of control | endpoint: mean survival time, dose: 400.0 mg/kg/injection, schedule: Q01DX001 (ip), vehicle: saline 95 % of control | [16] 96 % of control

CC(=O)c1cccc(OCc2ccccc2)c1
inactive: endpoint: mean survival time, dose: 100.0 mg/kg/injection, schedule: Q04DX003 (ip), vehicle: other 96 % of control | endpoint: mean survival time, dose: 200.0 mg/kg/injection, schedule: Q04DX003 (ip), vehicle: other 96 % of control

O=S(=O)(O)c1cncc(S(=O)(=O)O)n1
inactive: [3] 90 % of control | [14] 100 % of control | [4] 97 % of control | [15] 98 % of control | [5] 100 % of control | [16] 93 % of control

C=C1C(=O)OC2CC/C=C\CCC12 (centres undefined)
inactive: [8] 105 % of control | [3] 97 % of control | [4] 102 % of control

COC(=O)c1c[nH]c(=S)n1C(C)c1ccccc1 (centres undefined)
inactive: [1] 105 % of control | [9] 93 % of control | [2] 106 % of control | [10] 95 % of control | [11] 101 % of control

COC(=O)C1C2CCC(C2)C1C(=O)OC (centres undefined)
inactive: [9] 97 % of control | [10] 101 % of control | [11] 93 % of control

O=[N+]([O-])c1ccc(CS(=O)(=O)O)cc1
inactive: endpoint: mean survival time, dose: 100.0 mg/kg/injection, schedule: Q04DX002 (ip), vehicle: saline 104 % of control | endpoint: mean survival time, dose: 200.0 mg/kg/injection, schedule: Q04DX002 (ip), vehicle: saline 96 % of control | endpoint: mean survival time, dose: 400.0 mg/kg/injection, schedule: Q04DX002 (ip), vehicle: saline 96 % of control

CN1C(=O)C(=Cc2ccc(O)cc2)C(=O)N(C)C1=O
inactive: endpoint: mean survival time, dose: 12.5 mg/kg/injection, schedule: Q01DX009 (ip), vehicle: saline with Tween-80 96 % of control and 100 % of control | [12] 102 % of control and 107 % of control | [13] 100 % of control and 108 % of control | [1] 104 % of control and 111 % of control | [2] 102 % of control and 106 % of control | [17] 106 % of control and 111 % of control

Cc1cc2ncn(CO)c2cc1C
inactive: [1] 105 % of control | [2] 100 % of control | [17] 111 % of control

CCOC(=O)CCC(C#N)(CC(=O)OCC)C(=O)OCC (centres undefined)
inactive: [18] 96 % of control | [19] 104 % of control | [20] 104 % of control

O=C(NC(=S)Nc1ccc(CCO)cc1)c1cccc(Br)c1
inactive: [18] 104 % of control | [1] 97 % of control and 98 % of control | [21] 88 % of control and 101 % of control | [9] 100 % of control | [19] 98 % of control | [2] 101 % of control and 108 % of control | [22] 91 % of control and 92 % of control | [10] 100 % of control | [20] 104 % of control | [17] 86 % of control and 106 % of control | [23] 95 % of control | [11] 93 % of control

CC/C=C/C(C)OC(=N)C(Cl)(Cl)Cl (centres undefined)
inactive: [21] 103 % of control | [22] 100 % of control | [23] 97 % of control
